Reference: ChEMBL document CHEMBL1138551, “Antimicrobial studies of some novel quinazolinones fused with [1,2,4]-triazole, [1,2,4]-triazine and [1,2,4,5]-tetrazine rings” (2009)
Converted amounts (≈) assume the structure as drawn.

Legend:
Assay type in all cases: functional
[1] = test system: Bacillus subtilis; test: Antibacterial activity against Bacillus subtilis after 24 hrs by disk diffusion method
[2] = test system: Aspergillus fumigatus; test: Antifungal activity against Aspergillus fumigatus after 26 hrs by serial plate dilution method
[3] = test system: Escherichia coli; test: Antibacterial activity against Escherichia coli after 24 hrs by disk diffusion method
[4] = test system: Aspergillus flavus; test: Antifungal activity against Aspergillus flavus after 26 hrs by serial plate dilution method
[5] = test system: Streptococcus pneumoniae; test: Antibacterial activity against Streptococcus pneumoniae after 24 hrs by disk diffusion method
[6] = test system: Aspergillus niger; test: Antifungal activity against Aspergillus niger after 26 hrs by serial plate dilution method
[7] = test system: Candida albicans; test: Antifungal activity against Candida albicans after 26 hrs by serial plate dilution method
[8] = test system: Pseudomonas aeruginosa; test: Antibacterial activity against Pseudomonas aeruginosa after 24 hrs by disk diffusion method

| SMILES | MIC [1] [µg/mL] | MIC [2] [µg/mL] | MIC [3] [µg/mL] | MIC [4] [µg/mL] | MIC [5] [µg/mL] | MIC [6] [µg/mL] | MIC [7] [µg/mL] | MIC [8] [µg/mL] |
| --- | --- | --- | --- | --- | --- | --- | --- | --- |
| O=c1c2ccccc2n2c3nc4ccccc4c-3nnc2n1-c1ccccc1 | 50 (≈ 138 µM) | 25 (≈ 68.8 µM) | 50 (≈ 138 µM) | 25 (≈ 68.8 µM) | > 50 | > 50 | > 50 | 25 (≈ 68.8 µM) |
| Cc1ccc(-n2c(=O)c3ccccc3n3c(-c4ccccc4C)nnc23)cc1 | > 50 | 12.5 (≈ 34.1 µM) | 25 (≈ 68.2 µM) | 50 (≈ 136 µM) | 25 (≈ 68.2 µM) | 12.5 (≈ 34.1 µM) | 25 (≈ 68.2 µM) | > 50 |
| COc1ccc(N2C(=S)NN=C3N(c4ccccc4)C(=O)c4ccccc4N32)cc1 | 3.12 (≈ 7.51 µM) | 12.5 (≈ 30.1 µM) | 6.25 (≈ 15 µM) | 25 (≈ 60.2 µM) | 25 (≈ 60.2 µM) | 3.12 (≈ 7.51 µM) | 6.25 (≈ 15 µM) | 3.12 (≈ 7.51 µM) |
| O=c1c2ccccc2n2c(-c3ccccc3Cl)nnc2n1-c1ccc(Cl)cc1 | 1.56 (≈ 3.83 µM) | 3.12 (≈ 7.66 µM) | 1.56 (≈ 3.83 µM) | 6.25 (≈ 15.3 µM) | 3.12 (≈ 7.66 µM) | 1.56 (≈ 3.83 µM) | 1.56 (≈ 3.83 µM) | 3.12 (≈ 7.66 µM) |
| Cc1ccc(N2C(=S)NN=C3N(c4ccccc4)C(=O)c4ccccc4N32)cc1 | 50 (≈ 125 µM) | 25 (≈ 62.6 µM) | 50 (≈ 125 µM) | 12.5 (≈ 31.3 µM) | 25 (≈ 62.6 µM) | 25 (≈ 62.6 µM) | > 50 | 50 (≈ 125 µM) |
| Cc1ccc(-n2c(=O)c3ccccc3n3c4nc5ccccc5c-4nnc23)cc1 | 25 (≈ 66.2 µM) | 12.5 (≈ 33.1 µM) | 25 (≈ 66.2 µM) | 25 (≈ 66.2 µM) | 25 (≈ 66.2 µM) | 50 (≈ 132 µM) | 25 (≈ 66.2 µM) | > 50 |
| O=c1c2ccccc2n2c(-c3ccccc3)nnc2n1-c1ccccc1 | 25 (≈ 73.9 µM) | > 50 | 50 (≈ 148 µM) | > 50 | 50 (≈ 148 µM) | 25 (≈ 73.9 µM) | 25 (≈ 73.9 µM) | > 50 |
| COc1ccc(-n2c(=O)c3ccccc3n3c(-c4ccccc4Cl)nnc23)cc1 | 3.12 (≈ 7.74 µM) | 3.12 (≈ 7.74 µM) | 3.12 (≈ 7.74 µM) | 3.12 (≈ 7.74 µM) | 6.25 (≈ 15.5 µM) | 1.56 (≈ 3.87 µM) | 6.25 (≈ 15.5 µM) | 1.56 (≈ 3.87 µM) |
| Cc1ccc(N2C(=O)c3ccccc3N3C2=NNC(=S)N3c2ccc(C)cc2)cc1 | 25 (≈ 60.5 µM) | 50 (≈ 121 µM) | 25 (≈ 60.5 µM) | 12.5 (≈ 30.2 µM) | 50 (≈ 121 µM) | 25 (≈ 60.5 µM) | 25 (≈ 60.5 µM) | 50 (≈ 121 µM) |
| Cc1ccccc1-c1nnc2n(-c3ccccc3)c(=O)c3ccccc3n12 | > 50 | 25 (≈ 70.9 µM) | 25 (≈ 70.9 µM) | 25 (≈ 70.9 µM) | > 50 | > 50 | 50 (≈ 142 µM) | 50 (≈ 142 µM) |
| O=c1c2ccccc2n2c(-c3ccccc3Cl)nnc2n1-c1ccccc1 | 50 (≈ 134 µM) | 50 (≈ 134 µM) | 12.5 (≈ 33.5 µM) | 12.5 (≈ 33.5 µM) | 25 (≈ 67.1 µM) | 6.25 (≈ 16.8 µM) | 25 (≈ 67.1 µM) | 6.25 (≈ 16.8 µM) |
| O=C(O)c1cn(C2CC2)c2cc(N3CCNCC3)c(F)cc2c1=O [CIPROFLOXACIN] | 1.56 (≈ 4.71 µM) | – | – | – | 6.25 (≈ 18.9 µM) | – | – | 3.12 (≈ 9.42 µM) |
| Cc1ccc(-n2c(=O)c3ccccc3n3c(-c4ccccc4)nnc23)cc1 | 50 (≈ 142 µM) | 25 (≈ 70.9 µM) | 25 (≈ 70.9 µM) | 50 (≈ 142 µM) | 50 (≈ 142 µM) | 50 (≈ 142 µM) | > 50 | 25 (≈ 70.9 µM) |
| Cc1ccccc1-c1nnc2n(-c3ccc(Cl)cc3)c(=O)c3ccccc3n12 | 12.5 (≈ 32.3 µM) | 12.5 (≈ 32.3 µM) | 12.5 (≈ 32.3 µM) | 3.12 (≈ 8.07 µM) | 25 (≈ 64.6 µM) | 12.5 (≈ 32.3 µM) | 6.25 (≈ 16.2 µM) | 25 (≈ 64.6 µM) |
| OC(Cn1cncn1)(Cn1cncn1)c1ccc(F)cc1F [FLUCONAZOLE] | – | 6.25 (≈ 20.4 µM) | – | 3.12 (≈ 10.2 µM) | – | 1.56 (≈ 5.09 µM) | 1.56 (≈ 5.09 µM) | – |
| Cc1ccc(N2C(=O)c3ccccc3N3C2=NNC(=S)N3c2ccccc2)cc1 | 25 (≈ 62.6 µM) | 12.5 (≈ 31.3 µM) | 25 (≈ 62.6 µM) | 12.5 (≈ 31.3 µM) | > 50 | 25 (≈ 62.6 µM) | 25 (≈ 62.6 µM) | 25 (≈ 62.6 µM) |
| O=c1c2ccccc2n2c(-c3ccccc3)nnc2n1-c1ccc(Cl)cc1 | 6.25 (≈ 16.8 µM) | 6.25 (≈ 16.8 µM) | 6.25 (≈ 16.8 µM) | 12.5 (≈ 33.5 µM) | 12.5 (≈ 33.5 µM) | 25 (≈ 67.1 µM) | 12.5 (≈ 33.5 µM) | 12.5 (≈ 33.5 µM) |
| COc1ccc(-n2c(=O)c3ccccc3n3c4nc5ccccc5c-4nnc23)cc1 | 6.25 (≈ 15.9 µM) | 6.25 (≈ 15.9 µM) | 12.5 (≈ 31.8 µM) | 3.12 (≈ 7.93 µM) | 12.5 (≈ 31.8 µM) | 12.5 (≈ 31.8 µM) | 6.25 (≈ 15.9 µM) | 12.5 (≈ 31.8 µM) |
| Cc1ccc(-n2c(=O)c3ccccc3n3c(-c4ccccc4Cl)nnc23)cc1 | 25 (≈ 64.6 µM) | 25 (≈ 64.6 µM) | 12.5 (≈ 32.3 µM) | 50 (≈ 129 µM) | 12.5 (≈ 32.3 µM) | 6.25 (≈ 16.2 µM) | 12.5 (≈ 32.3 µM) | 6.25 (≈ 16.2 µM) |
| COc1ccc(-n2c(=O)c3ccccc3n3c(-c4ccccc4C)nnc23)cc1 | 12.5 (≈ 32.7 µM) | 6.25 (≈ 16.3 µM) | 6.25 (≈ 16.3 µM) | 25 (≈ 65.4 µM) | 25 (≈ 65.4 µM) | 6.25 (≈ 16.3 µM) | 12.5 (≈ 32.7 µM) | 3.12 (≈ 8.16 µM) |
| O=c1c2ccccc2n2c3nc4ccccc4c-3nnc2n1-c1ccc(Cl)cc1 | 6.25 (≈ 15.7 µM) | 6.25 (≈ 15.7 µM) | 3.12 (≈ 7.84 µM) | 3.12 (≈ 7.84 µM) | 1.56 (≈ 3.92 µM) | 1.56 (≈ 3.92 µM) | 3.12 (≈ 7.84 µM) | 3.12 (≈ 7.84 µM) |
| O=C1c2ccccc2N2C(=NNC(=S)N2c2ccccc2)N1c1ccccc1 | > 50 | > 50 | > 50 | > 50 | 25 (≈ 64.9 µM) | 25 (≈ 64.9 µM) | 25 (≈ 64.9 µM) | 50 (≈ 130 µM) |
| COc1ccc(-n2c(=O)c3ccccc3n3c(-c4ccccc4)nnc23)cc1 | 12.5 (≈ 33.9 µM) | 12.5 (≈ 33.9 µM) | 12.5 (≈ 33.9 µM) | 25 (≈ 67.9 µM) | 6.25 (≈ 17 µM) | 3.12 (≈ 8.47 µM) | 6.25 (≈ 17 µM) | 6.25 (≈ 17 µM) |
